Assays:
A549 xenografts = test: A549 human non-small cell lung cancer xenograft tumor volume in athymic nude mice; format: in vivo; conditions: for A549 Xenograft Tumor Volume, Mean / Percent Reduction of A549 Tumor Size on Day 75: ASO 50 mg/kg iv, cisplatin 5 mg/kg IP weekly; for A549 Xenograft Tumor Volume, Mean: nude mice; for Percent Reduction of A549 Tumor Size on Day 75: negative number indicates reduction vs. control
Protocol: (§1) Xenograft studies are carried out as described in Graff et al. (2005) Cancer Res. 65:7462-7469. Five million human cancer cells representing non-small cell lung cancer (line A549; ATCC, accession no. CCL-185; line NCI-H1975; ATCC, accession no. CRL-5908) are injected subcutaneously in the flank of 6-8 week old, athymic nude mice (Harlan, Indianapolis, Ind.) in a 1:1 mixture of serum-free growth medium and matrigel (Becton Dickinson, Bedford, Mass., catalogue #354234). Mice are monitored daily for palpable tumors.
(§2) When tumor volumes reach ˜50-100 mm^3, mice are randomized to treatment groups (Graff et al. (2007) J. Clin. Invest. 117:2638-48). Body weight is monitored each time tumors are measured.
(§3) For treatment, all mice are injected intravenously with the eIF-4E ASO in saline in a total volume of 200 μl. The ASO consists of the nucleotide sequence 5′-[…]-3′ (SEQ ID NO:1), in which every internucleoside linkage is a phosphorothioate linkage, nucleotides 1-5 and 16-20 reading from the 5′ end to the 3′ end each comprise a 2′-O-(2-methoxyethyl) sugar, nucleotides 6-15 are 2′-deoxynucleotides, every cytosine residue is a 5-methylcytosine, and which is in the form of a sodium salt. The mice are first injected with an initial loading dose of 50 mg/kg ASO for 3 consecutive days, followed by 50 mg/kg thrice weekly thereafter.
(§4) Cisplatin dosing begins 8 days after the first ASO dose to allow time for reduction of eIF-4E protein expression. Mice are dosed intraperitoneally (IP) with 2 or 5 mg/kg cisplatin (Teva Parenteral Medicines, Inc.; 0703-5748-11) from an infusion concentrate diluted in saline, in a volume of 200 μl once weekly for 65 days. One mL of infusion concentrate (1 mg/mL) contains 1 mg cisplatin, 9 mg sodium chloride, hydrochloric acid and/or sodium hydroxide to pH 3.2-4.4, and water for injection.
(§5) The vehicle only group is dosed with saline.
(§6) Tumor volumes are calculated measuring the largest (L) and smallest (W) diameters with a caliper. The formula is: Volume=L×W^2×0.534. Tumor volume data are transformed to a log scale to equalize variance across time and treatment groups. The log volume data are analyzed with a two-way repeated measures analysis of variance by time and treatment using SAS PROC MIXED software (SAS Institute Inc, Cary, N.C.) using the spatial power covariance structure. Treatment groups are compared to the control group at each time point and overall. The data may be plotted as means and standard errors for each treatment group versus time. Additivity is assessed in two ways: (1) as an overall interaction effect between the ASO and cisplatin in the repeated measures analysis, and (2) by using the Bliss Independence method on the final day of the study (C. I. Bliss (1939) Ann. AppL Biol. 26:585-615). These two methods yield the same results.

H1975 xenografts = test: H1975 human non-small cell lung cancer xenograft tumor volume in athymic nude mice; format: in vivo; conditions: for H1975 Xenograft Tumor Volume, Mean / Percent Reduction of H1975 Tumor Size on Day 43: ASO 50 mg/kg iv, cisplatin 5 mg/kg IP weekly; for H1975 Xenograft Tumor Volume, Mean: nude mice; for Percent Reduction of H1975 Tumor Size on Day 43: negative number indicates reduction vs. control
Protocol: as §1, §2, §3, §4, §5, §6

Compound: N.N.[Cl][Pt][Cl] [Cisplatin, cis-Diamminedichloroplatinum (II), reference compound]
- A549 Xenograft Tumor Volume, Mean (A549 xenografts; Day 11): 85.43 mm^3
- A549 Xenograft Tumor Volume, Mean (A549 xenografts; Day 14): 94.63 mm^3
- A549 Xenograft Tumor Volume, Mean (A549 xenografts; Day 18): 124.68 mm^3
- A549 Xenograft Tumor Volume, Mean (A549 xenografts; Day 21): 137.74 mm^3
- A549 Xenograft Tumor Volume, Mean (A549 xenografts; Day 25): 210.75 mm^3
- A549 Xenograft Tumor Volume, Mean (A549 xenografts; Day 28): 238.78 mm^3
- A549 Xenograft Tumor Volume, Mean (A549 xenografts; Day 32): 283.12 mm^3
- A549 Xenograft Tumor Volume, Mean (A549 xenografts; Day 36): 310.61 mm^3
- A549 Xenograft Tumor Volume, Mean (A549 xenografts; Day 40): 367.44 mm^3
- A549 Xenograft Tumor Volume, Mean (A549 xenografts; Day 43): 412.68 mm^3
- A549 Xenograft Tumor Volume, Mean (A549 xenografts; Day 47): 405.18 mm^3
- A549 Xenograft Tumor Volume, Mean (A549 xenografts; Day 50): 428.84 mm^3
- A549 Xenograft Tumor Volume, Mean (A549 xenografts; Day 54): 478.35 mm^3
- A549 Xenograft Tumor Volume, Mean (A549 xenografts; Day 57): 482.77 mm^3
- A549 Xenograft Tumor Volume, Mean (A549 xenografts; Day 61): 478.95 mm^3
- A549 Xenograft Tumor Volume, Mean (A549 xenografts; Day 64): 529.51 mm^3
- A549 Xenograft Tumor Volume, Mean (A549 xenografts; Day 68): 520.83 mm^3
- A549 Xenograft Tumor Volume, Mean (A549 xenografts; Day 71): 564.57 mm^3
- A549 Xenograft Tumor Volume, Mean (A549 xenografts; Day 75): 535.33 mm^3
- Percent Reduction of A549 Tumor Size on Day 75 (A549 xenografts; Day 75): −31.9%
- H1975 Xenograft Tumor Volume, Mean (H1975 xenografts; Day 7): 40.02 mm^3
- H1975 Xenograft Tumor Volume, Mean (H1975 xenografts; Day 12): 90.76 mm^3
- H1975 Xenograft Tumor Volume, Mean (H1975 xenografts; Day 15): 112.12 mm^3
- H1975 Xenograft Tumor Volume, Mean (H1975 xenografts; Day 19): 172.5 mm^3
- H1975 Xenograft Tumor Volume, Mean (H1975 xenografts; Day 22): 295.95 mm^3
- H1975 Xenograft Tumor Volume, Mean (H1975 xenografts; Day 26): 595.06 mm^3
- H1975 Xenograft Tumor Volume, Mean (H1975 xenografts; Day 29): 863.18 mm^3
- H1975 Xenograft Tumor Volume, Mean (H1975 xenografts; Day 33): 1221.36 mm^3
- H1975 Xenograft Tumor Volume, Mean (H1975 xenografts; Day 36): 1740.85 mm^3
- H1975 Xenograft Tumor Volume, Mean (H1975 xenografts; Day 40): 2095.44 mm^3
- H1975 Xenograft Tumor Volume, Mean (H1975 xenografts; Day 43): 2798.22 mm^3
- Percent Reduction of H1975 Tumor Size on Day 43 (H1975 xenografts; Day 43): −19.6%

Compound: d(P-thio) ([2′-O-(2-methoxyethyl)]m5rU-([2′-O-(2-methoxyethyl)]rG-([2′-O-(2-methoxyethyl)]m5rU-([2′-O-(2-methoxyethyl)]mSrC-([2′-O-(2-methoxyethyl)]rA-T-A-T-T-m5C-m5C-T-G-G-A ([2′-O-(2-methoxyethyl)]m5rU-([2′-O-(2-methoxyethyl)]m5rC-([2′-O-(2-methoxyethyl)]m5rC-([2′-O-(2-methoxyethyl)]m5rU-([2′-O-(2-methoxyethyl)]m5rU) [eIF-4E ASO]
- sensitization of tumor cells to the growth- and proliferation-inhibiting action of cisplatin (A549 xenografts; A549 xenografts): sensitizes the tumor cells
- A549 Xenograft Tumor Volume, Mean (A549 xenografts; Day 11): 86.39 mm^3
- A549 Xenograft Tumor Volume, Mean (A549 xenografts; Day 14): 87.36 mm^3
- A549 Xenograft Tumor Volume, Mean (A549 xenografts; Day 18): 141.7 mm^3
- A549 Xenograft Tumor Volume, Mean (A549 xenografts; Day 21): 134.88 mm^3
- A549 Xenograft Tumor Volume, Mean (A549 xenografts; Day 25): 212.4 mm^3
- A549 Xenograft Tumor Volume, Mean (A549 xenografts; Day 28): 251.64 mm^3
- A549 Xenograft Tumor Volume, Mean (A549 xenografts; Day 32): 309.94 mm^3
- A549 Xenograft Tumor Volume, Mean (A549 xenografts; Day 36): 402.67 mm^3
- A549 Xenograft Tumor Volume, Mean (A549 xenografts; Day 40): 439.54 mm^3
- A549 Xenograft Tumor Volume, Mean (A549 xenografts; Day 43): 499.06 mm^3
- A549 Xenograft Tumor Volume, Mean (A549 xenografts; Day 47): 455.53 mm^3
- A549 Xenograft Tumor Volume, Mean (A549 xenografts; Day 50): 463.92 mm^3
- A549 Xenograft Tumor Volume, Mean (A549 xenografts; Day 54): 520.9 mm^3
- A549 Xenograft Tumor Volume, Mean (A549 xenografts; Day 57): 550.29 mm^3
- A549 Xenograft Tumor Volume, Mean (A549 xenografts; Day 61): 597.72 mm^3
- A549 Xenograft Tumor Volume, Mean (A549 xenografts; Day 64): 618.75 mm^3
- A549 Xenograft Tumor Volume, Mean (A549 xenografts; Day 68): 594.08 mm^3
- A549 Xenograft Tumor Volume, Mean (A549 xenografts; Day 71): 566.2 mm^3
- A549 Xenograft Tumor Volume, Mean (A549 xenografts; Day 75): 608.86 mm^3
- Percent Reduction of A549 Tumor Size on Day 75 (A549 xenografts; Day 75): −22.6%
- H1975 Xenograft Tumor Volume, Mean (H1975 xenografts; Day 7): 45.83 mm^3
- H1975 Xenograft Tumor Volume, Mean (H1975 xenografts; Day 12): 85.9 mm^3
- H1975 Xenograft Tumor Volume, Mean (H1975 xenografts; Day 15): 121.6 mm^3
- H1975 Xenograft Tumor Volume, Mean (H1975 xenografts; Day 19): 255.64 mm^3
- H1975 Xenograft Tumor Volume, Mean (H1975 xenografts; Day 22): 376.84 mm^3
- H1975 Xenograft Tumor Volume, Mean (H1975 xenografts; Day 26): 742.98 mm^3
- H1975 Xenograft Tumor Volume, Mean (H1975 xenografts; Day 29): 1100.19 mm^3
- H1975 Xenograft Tumor Volume, Mean (H1975 xenografts; Day 33): 1485.65 mm^3
- H1975 Xenograft Tumor Volume, Mean (H1975 xenografts; Day 36): 2164.31 mm^3
- H1975 Xenograft Tumor Volume, Mean (H1975 xenografts; Day 40): 2901.75 mm^3
- H1975 Xenograft Tumor Volume, Mean (H1975 xenografts; Day 43): 3881.36 mm^3
- Percent Reduction of H1975 Tumor Size on Day 43 (H1975 xenografts; Day 43): 11.5%
- sensitization of tumor cells to the growth- and proliferation-inhibiting action of cisplatin (H1975 xenografts; H1975 xenografts): sensitizes the tumor cells

Source: US8268797B2, “Combination therapy for the treatment of cancer” (Isis Pharmaceuticals, Inc., priority 2008, dated 2012)
